# Entries after “also recorded” stand apart in the source; their conditions may differ. Structures can show the parent of a compound that is named as a salt. Marks after values point to notes of the source that are not given here.
# What was measured:
# Format in all cases: in vivo
# [1] = tested on: rats; experiment: Placing reflex (cumulative placing score) after intrathecal injection; conditions: rat; for Cumulative Placing Score: median (range)
# Procedure: (§1) Rats were tested before 15 minutes through 240 minutes after intrathecal injection of 5 nmoles (in 10 μl) of 6-[2-(1(2)H-tetrazole-5-yl)ethyl]decahydroisoquinolone-3-carboxylic acid. Sensory function was tested at the hindpaw using withdrawal response to pinprick and withdrawal to pinch with a sharp forceps. Motor performance (ambulation, the placing reflex and Rotarod time), blood pressure and heart rate was also evaluated. Some tests were repeated the next day. Responses after 6-[2-(1(2)H-tetrazole-5-yl)ethyl]decahydroisoquinolone-3-carboxylic acid were compared to injection of 40 μl of bupivacaine, 0.75%. Pinprick responses at the forepaw, chest, abdomen, hindleg and hindpaw were also examined after intrathecal 6-[2-(1(2)H-tetrazole-5-yl)ethyl]decahydroisoquinolone-3-carboxylic acid.
# (§2) Rats were anesthetized with halothane. The lumbar region was shaved, prepared with povidone-iodine, made kyphotic and incised 2 to 3 cm longitudinally in the midline at the level of the iliac crests. The space between the 5th and 6th lumbar vertebrae was punctured with 23G hypodermic needle and a 32G PU catheter (10 cm length, OD 0.0107 inches and ID 0.005 inches) reinforced with a Teflon coated stainless steel stylet (0.003 inches) was advanced through the needle cranially. The needle and the stylet were removed and the catheter withdrawn so that 6.5-7 cm extended outside of the lumbar masculature. The catheter was fixed to the fascia, sutured, inserted into an 8 cm length of PE-10 tubing and secured with glue covered with epoxy. The catheter was tunneled under the skin to the cervical region, flushed with saline and sealed with a cautery pen. The dead space of the catheter was 4.5 to 5 μl. The skin was closed and the rat was allowed to recover from anesthesia for 2-3 days.
# (§3) Rats were trained over a two-day period. Training began by placing the rat on a Rotarod (Stoelting, Wood Dale, Ill.) that was fixed for three minutes. Then, three series of trials separated by 2-3 hours were performed. During each trial, the rat was placed on the Rotarod accelerating for the first 20 s then at a constant rate of approximately 5 rpm, until a 180 s cut off time. If the rat fell at any time during the initial trial, the trial was repeated. Each rat was allowed three attempts per trial. On the second day, the same procedure was repeated, though acceleration was sustained for 120 s to approximately 12 rpm, with a 150 second cut off time. On day 3, the test day, rats are again placed on the Rotarod and accelerated for 120 seconds to 12 rpm with the cutoff time of 150 seconds. Each rat was permitted 4 attempts at 15 minute intervals. Those successful in 2 of the 4 attempts continued in the protocol, and the average of the 4 attempts was considered the baseline (pre). After a two-hour period, the test drug was administered and rats were examined once on the Rotarod at 30, 60, 90, 120, 180, and 240 minutes. […] Then the placing reflex was tested. Rats were placed on a table and the dorsum of either hindpaw was drawn across the edge of the table; this elicits a lifting of the paw onto the surface of the table (2=normal; 1=delay of 1-2 sec.; 0=more than 2 sec.). This test was performed 3 times for each hindlimb after each ambulation test. The sum of the three trials on both paws were recorded ([…]).
# (§4) The dose and volume of drugs injected intrathecally were determined from the dose required to produce hindlimb sensory and motor loss in preliminary experiments. Bupivacaine HCl (0.75% in 8.25% dextrose for spinal injection) was purchased from Abbott Laboratories (Chicago, Ill.). The intrathecal injection volume was 40 μl. The compound was dissolved in 10% dextrose and water. The injection volume was 1 ul. All intrathecal drug injections were followed by a flush of 10 μl preservative-free saline.
# [2] = tested on: rats; experiment: Ambulation score after intrathecal injection; conditions: rat; for Ambulation Score: median (range)
# Procedure: as §1, §2, §3, §4
# [3] = tested on: rats; experiment: Mean arterial pressure and heart rate via carotid artery catheter after intrathecal injection; conditions: rat
# Procedure: as §1
# For blood pressure measurement, the paratracheal region was shaved, prepared with povidone-iodine, and incised 1.5-2 cm longitudinally lateral to the midline. The carotid artery was isolated and cannulated with PE-50 tubing that had been stretched by exposing the distal end to heat. The catheter secured and tunneled subcutaneously to the posterior neck region. The skin was closed with 4-0 silk and the rat was allowed to recover for 2-3 days before experiments began.
# The mean arterial pressure and heart rate were measured using the carotid artery catheter attached to a pressure transducer relayed to a polygraph and preamplifier (Grass, Quincy, Mass). Heart rate was intermittently measured by counting the arterial pulse wave for 30 seconds.
# as §4
# [4] = tested on: rats; experiment: Withdrawal response to pinprick at the hindpaw after intrathecal injection; conditions: rat
# Procedure: as §1, §2
# (§5) First, the withdrawal response to pinprick was tested on each hindpaw. A 5 mm long tip of a safety pin attached to a von Frey filament (520 mN) was applied once to the plantar aspect of each hindpaw. Either a withdrawal response or a reaction occurred (1=positive response) or no withdrawal (0=no response). The sum of the scores (0, 1 or 2) for each rat was recorded. If no response or reaction was elicited by pinprick, a serrated dissecting forceps was used to pinch the skin of the plantar region for 2-3 sec. Again, withdrawal or reaction was considered a positive response (score=1) and the absence of both a negative test (score=0). […] Because the response to pinch was quite vigorous and rats were subjected to repeated tests in a single day, only rats unresponsive to pinprick were tested for pinch. If pinprick evoked a response, pinch was designated as positive also. The sum of the scores after pinch (0, 1 or 2) was recorded.
# as §4
# [5] = tested on: rats; experiment: Withdrawal response to pinch with forceps at the hindpaw after intrathecal injection; conditions: rat
# Procedure: as §1, §2, §5, §4
# [6] = Bupivacaine 0.75% 40 μl IT, n=8, 15 min
# [7] = Bupivacaine 0.75% 40 μl IT, n=8, 30 min
# [8] = Bupivacaine 0.75% 40 μl IT, n=8, 60 min
# [9] = Bupivacaine 0.75% 40 μl IT, n=8, 90 min
# [10] = Bupivacaine 0.75% 40 μl IT, n=8, 120 min
# [11] = Bupivacaine 0.75% 40 μl IT, n=8, 180 min
# [12] = Bupivacaine 0.75% 40 μl IT, n=8, 240 min
# [13] = Bupivacaine 0.75% 40 μl IT, n=8, 24 hrs
# [14] = Bupivacaine 0.75% 40 μl IT, n=8, Pre (before drug injection)
# [15] = bupivacaine 0.75% 40 μl intrathecal
# [16] = bupivacaine 0.75% 40 μl intrathecal, fifteen minutes after administration
# [17] = LY293558 5 nmoles IT, n=8, 24 hrs
# [18] = LY293558 5 nmoles IT, n=8, Pre (before drug injection)
# [19] = 5 nmoles intrathecal, from 15 minutes
# [20] = 5 nmoles intrathecal vs bupivacaine
structure (smiles),measurement,setting,value
"CCCCN1CCCCC1C(=O)Nc1c(C)cccc1C (stereo not drawn) [Bupivacaine, Bupivacaine HCl]",Cumulative Placing Score,[1]; [6],0 (0-0)*
same,Cumulative Placing Score,[1]; [7],6 (0-12)*
same,Cumulative Placing Score,[1]; [8],12 (1-12)
same,Cumulative Placing Score,[1]; [9],12 (0-12)
same,Cumulative Placing Score,[1]; [10],12 (12-12)
same,Cumulative Placing Score,[1]; [11],12 (12-12)
same,Cumulative Placing Score,[1]; [12],12 (12-12)
same,Cumulative Placing Score,[1]; [13],12 (12-12)
same,Cumulative Placing Score,[1]; [14],12 (12-12)
same,placing reflex decreased for (P<0.05 vs Pre),[1]; [15],30 min
same,Ambulation Score,[2]; [6],0 (0-0)*
same,Ambulation Score,[2]; [7],1 (0-2)*
same,Ambulation Score,[2]; [8],2 (1-2)
same,Ambulation Score,[2]; [9],2 (1-2)
same,Ambulation Score,[2]; [10],2 (2-2)
same,Ambulation Score,[2]; [11],2 (2-2)
same,Ambulation Score,[2]; [12],2 (2-2)
same,Ambulation Score,[2]; [13],2 (2-2)
same,Ambulation Score,[2]; [14],2 (2-2)
same,ambulation decreased for (P<0.05 vs Pre),[2]; [15],30 min
same,time by which blood pressure and heart rate changes resolved,[3]; [15],≤ 30 min
same,heart rate change vs Pre,[3]; [16],increased
same,mean arterial pressure change vs Pre,[3]; [16],decreased
same,time at which all rats had recovered withdrawal to pinprick,[4]; [15],60 min
same,withdrawal to pinprick vs Pre,"[4]; bupivacaine 0.75% 40 μl intrathecal, 15 minutes after injection, not eliminated in all tests",reduced
same,time of full recovery of response to pinch,[5]; [15],30 min
same,response to pinch vs Pre,"[5]; bupivacaine 0.75% 40 μl intrathecal, 15 minutes after injection",reduced
"O=C(O)C1CC2CC(CCc3nnn[nH]3)CCC2CN1 (stereo not drawn) [LY293558, 6-[2-(1(2)H-tetrazole-5-yl)ethyl]decahydroisoquinolone-3-carboxylic acid]",placing reflex completely eliminated in all rats through,[1]; 5 nmoles intrathecal,90 min
same,placing reflex impaired through (P<0.05 vs Pre),[1]; 5 nmoles intrathecal,3 h
same,Cumulative Placing Score,[1]; [17],12 (12-12)
same,Cumulative Placing Score,[1]; [18],12 (12-12)
same,time by which all rats had recovered ambulation,[2]; 5 nmoles intrathecal,≤ 4 h
same,ambulation significantly impaired through (P<0.05 vs Pre),[2]; [19],90 min
same,Ambulation Score,"[2]; LY293558 5 nmoles IT, n=8, 15 min",0 (0-0)*
same,Ambulation Score,"[2]; LY293558 5 nmoles IT, n=8, 240 min",2 (2-2)
same,Ambulation Score,[2]; [17],2 (2-2)
same,Ambulation Score,[2]; [18],2 (2-2)
same,change in blood pressure,[3]; 5 nmoles intrathecal,No change; also recorded: did not change
same,change in heart rate,[3]; 5 nmoles intrathecal,No change; also recorded: did not change
same,greater inhibition of pinprick than bupivacaine (P<0.05) through,[4]; [20],3 h
same,rats failed to respond to pin prick through (P<0.05 vs Pre),[4]; [19],2 h
same,recovery of pinprick response the next day,"[4]; 5 nmoles intrathecal, next day",recovered fully
same,greater inhibition of pinch than bupivacaine (P<0.05) through,[5]; [20],4 h
same,all rats failed to respond to pinch through (P<0.05 vs Pre),[5]; [19],90 min
same,recovery of pinch response the next day,"[5]; 5 nmoles intrathecal, next day",recovered fully
